Patent US20210059964A1, “Anti-I-Type Allergy Agent, Degranulation Inhibitor for Basophils and Mast Cells, Anti-Dementia Agent, Agent for Improving/Inhibiting Short-Term Memory Impairment” (Mitsui Sugar Co., Ltd., priority 2018, published 2021)

Columns and labels:
[1] = test system: RBL-2H3 cells; assay: RBL-2H3 cell degranulation inhibition test; type: cell-based, rat; conditions: untreated control = 100
Protocol: Whether or not an anti-I-type allergy agent has a degranulation inhibitory action can be confirmed through the following method. For example, cells, such as rat basophilic leukemia cells (RBL-2H3 cells), which extracellularly release […] containing histamine through cross-linking of IgE bound on a cell surface due to an antigen are used. The extent to which the degranulation of a specimen to which an anti-I-type allergy agent is added is inhibited when these cells are stimulated by the antigen is calculated compared to a specimen to which no anti-I-type allergy agent is added. RBL-2H3 cells, which were rat basophilic leukemia cells, (National Institutes of Biomedical Innovation, Health and Nutrition) were seeded in a 96-well plate and were then cultured overnight. […] Then, the cells were washed with the buffer solutions. Furthermore, the prepared 1,000, 500, and 250 μg/mL test solutions were added thereto so that the final concentrations became 500 μg/mL (Example 1), 250 μg/mL (Example 2), and 125 μg/mL (Example 3), respectively. Thereafter, the mixtures were allowed to react at 37° C. for 10 minutes. Then, DNP-labeled human serum albumin was added thereto, and the mixtures were further allowed to react at 37° C. for 3 hours. […] For each sample of Examples 1 to 3, Comparative Example 1, a positive control, an antigen-unstimulated control, and sample blanks, the absorbance of p-nitrophenol generated by reaction between a substrate and β-hexosaminidase present in granules was measured (at a measurement wavelength of 405 nm and a control wavelength of 650 nm) using a microplate reader (SpectraMax M2e, Molecular Devices, LLC.) The emission rate was obtained using the following equation from the absorbance of each sample with respect to the absorbance of Comparative Example 1, and each degranulation rate was calculated from the emission rate. In the equation, “absorbance on cell supernatant” and “absorbance on cell solution side” are values obtained by subtracting the sample blanks. Emission rate (%)=absorbance on cell supernatant side/(absorbance on cell supernatant side+absorbance on cell solution side) Degranulation rate (%)={average value of (emission rate of test solution−emission rate of antigen-unstimulated control)/(emission rate of untreated control−emission rate of antigen-unstimulated control)}×100

[2] = test system: short-term memory impairment caused by accumulation of amyloid β proteins; assay: Y-shaped maze test in mice injected with amyloid β; type: in vivo; conditions: 100 mg/kg oral once a day
Protocol: p-Coumaric acid (trans-p-coumaric acid, Tokyo Chemical Industry Co., Ltd.) was stored at room temperature (control temperature: 18.0° C. to 28.0° C.) until it was used in a test. Injection water (Otsuka distilled water, Otsuka Pharmaceutical Factory, Inc.) was prepared as a medium in which p-coumaric acid was to be dissolved. The required amount of p-coumaric acid was weighed out and dissolved in the injection water. Then, the dissolved p-coumaric acid was diluted to a predetermined concentration to obtain a test solution.
Amyloid β (Amyloid-β Protein (25-35, Polypeptide Laboratories) to be used in an amyloid β solution was stored in a freezer (control temperature: −30° C. to −20° C.) until it was to be used in a test. Amyloid β was dissolved in injection water to 2 mM to prepare an amyloid β solution.
Male Slc:ddY mice (SPF, Japan SLC, Inc.) were used as test animals 5-week-old mice were obtained as the mice. Mice are animal species generally used in behavioral pharmacology tests, and maintenance of their strains is clear. The body weight range of the mice 1 day after the acquisition was 23.8 to 30.0 g.
Grouping was performed through a random sampling method on the start day of administration of a test solution so that the average body weight of each group was approximately uniform. As a group configuration, there were three groups: a pseudo-operation group, a medium control group, and a p-coumaric acid administration group. In the p-coumaric acid administration group, the amount of solution administered was calculated as 10 mL/kg based on the body weight on the administration day so that the amount of p-coumaric acid administered was 100 mg/kg per mouse. A 0.5% (w/v) methyl cellulose solution was administered to the pseudo-operation group and the medium control group at 10 mL/kg.
The start day of administration of a test solution was regarded as day 1 of administration, the test solution was administered once a day, and an amyloid β solution was injected into the mice on day 8 of the administration. Thereafter, a Y-shaped maze test was carried out on day 14 of the administration. Each procedure will be described below.
The administration route was oral administration. Regarding the administration method, a test solution was orally administered according to a usual method used in test facilities using a polypropylene disposable injection cylinder (TERUMO CORPORATION) equipped with a disposable oral sonde for mice (Fuchigami Kikai). At the time of the administration operation, the test solution was mixed by inversion every time it was administered to a mouse, and was then sucked into the injection cylinder. On the day of injection of an amyloid β solution, the test solution was administered after the injection of the amyloid β solution. […]

[3] = day 14, 8 minutes in maze, mean ± standard error

## COC[C@H]1OC(=O)c2coc3c2[C@@]1(C)C1=C(C3=O)[C@@H]2CCC(=O)[C@@]2(C)C[C@H]1OC(C)=O [Wortmannin, reference compound]
[1]; Wortmannin final concentration 25 nmol/L
  degranulation rate: 39±6.4%

## O=C(O)/C=C/c1ccc(O)cc1 [p-Coumaric acid]
[1]; p-coumaric acid final concentration 125 μg/mL
  degranulation rate: 78±8.1%
[1]; p-coumaric acid final concentration 250 μg/mL
  degranulation rate: 46±8.0%
[1]; p-coumaric acid final concentration 500 μg/mL, anti-DNP-IgE sensitised, DNP-labeled human serum albumin stimulated
  degranulation rate: 12±3.0%
[2]; [3]
  Spontaneous alternation behavior number: 21.3 ± 1.5
  Spontaneous behavior alternation rate (%): 66.0 ± 1.4%
  Total entry number: 34.2 ± 2.1
[2]; day 14, significant difference p<0.01
  spontaneous alternation behavior rate compared with medium control group: higher than that of the medium control group
